In PubChem BioAssay (NCI) one finds TGI data, which are given here for 14 compounds.

Test systems include EKVX NSCLC; NCI-H23 lung; HOP-92 NSCLC; SK-MEL-5 melanoma; SK-MEL-28 melanoma; COLO 205 colon; IGROV1 ovarian; HCT-116 colon; PC-3 prostate; RXF 393 renal.
Common to all, as to assay: NCI tumour cell line growth inhibition, 48 h

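1) Cells in 96-well plates. 2) Compound, 48 h, 5 concentrations. 3) Linear interpolation between surrounding doses. 4) Unreached endpoint = highest concentration. TGI is the concentration that stops growth completely.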 Where only a bound is given, the exact number is not on record here.

With `c1ccc2c(c1)SCCCS2`, the TGI in the test on EKVX NSCLC, with NCI-H23 lung, in the test on HOP-92 NSCLC, in the test with SK-MEL-5 melanoma, in the test on SK-MEL-28 melanoma and in the test on COLO 205 colon was above 100 µM throughout. In addition, the TGI in the test with IGROV1 ovarian, in the test with HCT-116 colon and with PC-3 prostate was above 100 µM in each case.
Turning to `OCc1ccc2c(c1)CC1(C2)Cc2cc3c(cc2C1O)CCC3` (stereo not given), the TGI with EKVX NSCLC is 40.1 µM; in the test on RXF 393 renal, 18.4 µM; in the test on NCI-H23 lung, 25.7 µM; in the test with HOP-92 NSCLC, 34.1 µM; in the test on SK-MEL-5 melanoma, 12 µM; with SK-MEL-28 melanoma, 21.3 µM. The TGI was determined as 10.3 µM with COLO 205 colon, 26.8 µM with IGROV1 ovarian, 15.4 µM in the test on HCT-116 colon and 11.7 µM in the test with PC-3 prostate.
On to `O=c1c2c3c(sc2[nH]c(=S)n1-c1ccccc1)CCCc1ccc([N+](=O)[O-])cc1-3`, for which the TGI with EKVX NSCLC was above 100 µM; in the test with RXF 393 renal, 38.7 µM; with NCI-H23 lung, above 100 µM; in the test on HOP-92 NSCLC, 76.6 µM; with SK-MEL-5 melanoma it was above 100 µM; in the test with SK-MEL-28 melanoma, above 100 µM. Moreover, the TGI with COLO 205 colon is above 100 µM; in the test with IGROV1 ovarian it was 27.3 µM; in the test on HCT-116 colon it was above 100 µM; in the test with PC-3 prostate, above 100 µM.
Consider `C[C@@H]1CC[C@@]2(C)C(C(=O)O)=CCCC2[C@@]1(C)CC(=O)c1ccoc1` (stereo not given in full), for which the TGI in the test on EKVX NSCLC, with RXF 393 renal, in the test on NCI-H23 lung, in the test on HOP-92 NSCLC, with SK-MEL-5 melanoma and with SK-MEL-28 melanoma was above 25 µM each time. In addition, the TGI with COLO 205 colon, in the test on IGROV1 ovarian, in the test with HCT-116 colon and in the test on PC-3 prostate was above 25 µM each time.
As to `CC(C)NC(=O)OCc1c(COC(=O)NC(C)C)n(C)c2c1ccc1sccc12`, the TGI in the test on EKVX NSCLC was 34.1 µM; in the test with RXF 393 renal it was 39.9 µM; in the test on NCI-H23 lung it was 29.3 µM; in the test with HOP-92 NSCLC, 27.3 µM; with SK-MEL-5 melanoma it was 26.3 µM; with SK-MEL-28 melanoma, 57.3 µM. The TGI in the test with COLO 205 colon amounted to 37.9 µM; in the test with IGROV1 ovarian, 26.1 µM; in the test with HCT-116 colon it was 39 µM; in the test with PC-3 prostate, 43.7 µM.
In the case of `O=C(ON=C1c2ccccc2C(Br)C(Br)c2ccccc21)c1ccccc1` (stereo not given), the TGI in the test with EKVX NSCLC was 46.6 µM; in the test on RXF 393 renal, 28.4 µM; with NCI-H23 lung, 37.8 µM; in the test on HOP-92 NSCLC it was 5.27 µM; in the test on SK-MEL-5 melanoma, 31.7 µM; in the test with SK-MEL-28 melanoma, 33.2 µM. Besides, the TGI with COLO 205 colon is 36.7 µM; in the test with IGROV1 ovarian, 6.27 µM; with HCT-116 colon, 28 µM; in the test with PC-3 prostate, 40.2 µM.
As to `OCc1cn(Cc2ccccc2)c2ccccc12`, the TGI is above 100 µM in the test with EKVX NSCLC; 4.53 µM in the test on RXF 393 renal; 31 µM with NCI-H23 lung; 22.9 µM in the test on HOP-92 NSCLC; above 47.2 µM with SK-MEL-5 melanoma; above 100 µM with SK-MEL-28 melanoma. In addition, the TGI with COLO 205 colon was 13.6 µM; with IGROV1 ovarian it was 2.09 µM; with HCT-116 colon, above 26.3 µM; with PC-3 prostate it was 78.2 µM.
For `CCOC1C=CC(=O)C(CO)O1` (stereo not given), the TGI in the test with EKVX NSCLC was determined as 33.3 µM; in the test on RXF 393 renal it was 24.2 µM; in the test with NCI-H23 lung, 27.6 µM; in the test on HOP-92 NSCLC it was 8.29 µM; in the test on SK-MEL-5 melanoma, 37.1 µM; in the test on SK-MEL-28 melanoma, 33.3 µM. For the same compound, the TGI in the test with COLO 205 colon is 30.4 µM; in the test with IGROV1 ovarian, 27.6 µM; with HCT-116 colon it was 17.4 µM; with PC-3 prostate, 28.9 µM.
As for `Cn1c2ccccc2n2c3ncccc3c(=O)c(C#N)c12`, the TGI was above 100 µM in the test with EKVX NSCLC; above 56.4 µM in the test on RXF 393 renal; 36.6 µM with NCI-H23 lung; above 100 µM in the test on HOP-92 NSCLC; 21.5 µM in the test with SK-MEL-5 melanoma; above 100 µM in the test on SK-MEL-28 melanoma. For the same compound, the TGI in the test on IGROV1 ovarian was above 100 µM; in the test on HCT-116 colon, above 59 µM; in the test with PC-3 prostate, above 100 µM.
Consider `CC(=O)Nc1nc(Cl)cc(NCC2(CO)CCC2)n1`, for which the TGI in the test on EKVX NSCLC, in the test on RXF 393 renal, with NCI-H23 lung, with HOP-92 NSCLC, in the test on SK-MEL-5 melanoma and in the test on SK-MEL-28 melanoma was above 100 µM each time. For the same compound, the TGI with COLO 205 colon, in the test on IGROV1 ovarian, with HCT-116 colon and in the test with PC-3 prostate was above 100 µM throughout.
With `CN(C)C(=O)C(F)(F)C(c1ccc(F)cc1)C1C(=O)N(C)C(=O)N(C)C1=O` (stereo not given), the TGI in the test on EKVX NSCLC, in the test on RXF 393 renal, in the test on NCI-H23 lung, in the test on HOP-92 NSCLC, in the test with SK-MEL-5 melanoma and in the test on SK-MEL-28 melanoma was above 100 µM throughout. The TGI in the test on COLO 205 colon, in the test on HCT-116 colon and in the test with PC-3 prostate was above 100 µM in each case.
Turning to `CC1(C)CC(=O)C2=C(C1)C(c1ccccc1Cl)C1C(=O)CC(C)(C)CC1(O)O2` (stereo not given), the TGI with EKVX NSCLC, in the test on RXF 393 renal, in the test on NCI-H23 lung, in the test on HOP-92 NSCLC, with SK-MEL-5 melanoma and with SK-MEL-28 melanoma was above 100 µM throughout. Also, the TGI was above 31.6 µM with COLO 205 colon, above 100 µM in the test with IGROV1 ovarian, above 100 µM in the test on HCT-116 colon and above 100 µM in the test on PC-3 prostate.
As for `CCOC(=O)/C=C/c1nc(C#N)c(N)o1`, the TGI with EKVX NSCLC, with RXF 393 renal, with HOP-92 NSCLC, in the test on SK-MEL-5 melanoma, in the test with SK-MEL-28 melanoma and in the test with IGROV1 ovarian was above 100 µM each time. Moreover, the TGI in the test on HCT-116 colon and in the test with PC-3 prostate was above 100 µM throughout.
Turning to `NC1=CC(=O)c2c(O)ccc(O)c2C1=O`, the TGI with EKVX NSCLC stood at 36.2 µM; with RXF 393 renal, 22.1 µM; in the test on NCI-H23 lung, 27.9 µM; with HOP-92 NSCLC, 38.2 µM; in the test with SK-MEL-5 melanoma, 20.3 µM; in the test with SK-MEL-28 melanoma, 38 µM. Also, the TGI was 20.9 µM in the test on COLO 205 colon, 29.5 µM in the test on IGROV1 ovarian, 22.3 µM with HCT-116 colon and above 90.6 µM in the test with PC-3 prostate.
